Source: publication PMC9179981 (International Journal of Molecular Sciences, 2022)
Like-named read-outs stand apart in the source and are kept apart here.

Assays:
[1] = biological target: T1, BuChE (EC 3.1.1.8, equine serum) (Equus caballus, UniProt P81908); experiment: biochemical; type: biochemical
T1 construct: purchased Sigma Aldrich (Steinheim, Germany); host or cells: equine serum
Method: (§1) Ellman’s assay was used to assess the inhibitory activity of the newly synthesized compounds towards AChE and BuChE. […] An evaluation of the inhibitory potency towards AChE (EC 3.1.1.7, Electrophorus electricus) and BuChE (EC 3.1.1.8, equine serum) was performed using a modified spectrophotometric Ellman’s method. All necessary reagents for the study were purchased from Sigma Aldrich (Steinheim, Germany). […] The phosphate buffer (pH 8.0) was used as a solvent for reagents. The assay protocol included 14 µL of the tested compound in the nine different concentrations, and 40 µL of substrate acetylthiocholine (ATI) in concentration 1mM or 2mM for AChE and BuChE, respectively. Next, 76 µL of 0.4 mg/mL 5,5′-dithio-bis(2-nitrobenzoic) acid (DTNB) was added to the mixture. In the end, to start the reaction 10 µL of AChE (2U/mL) or BuChE (4U/mL) was added and the solution was mixed and incubated for 10 min. at 37 °C. As a control, instead of the tested compound, we used PBS. […] The experiments were performed independently and in triplicate. Data were expressed as mean ± SD.

[2] = biological target: T2, AChE (EC 3.1.1.7, Electrophorus electricus) (Electrophorus electricus, UniProt O42275); experiment: biochemical
T2 construct: purchased Sigma Aldrich (Steinheim, Germany)
Method: as §1

BuChE = biological target: T3, BuChE (Equus caballus, UniProt P81908); experiment: Kinetic characterization of BuChE inhibition (Lineweaver-Burk); type: biochemical, equine; details: Lineweaver-Burk plot; inhibitor 0, 150, 200, 250 nM
T3 construct: purchased Sigma Aldrich (Steinheim, Germany); host or cells: equine serum
Method: Lineweaver–Burk plots were prepared to reveal the type of inhibition. The experiments were performed in triplicate.
The protocol of the kinetic study was similar to the previous inhibition study. A phosphate buffer (pH 8.0) was used as the solvent for all reagents. The tested medium consisted of 76 µL DTNB (0.4 mg/mL), 40 µL substrate (ATI) at chosen concentrations (35–350 µM), 10 µL of AChE (2 U/mL) or BuChE (4 U/mL), and 14 µL of the inhibitor. […] For the BuChE kinetic analysis, we used four concentrations of the 3b derivative (0, 150, 200, 250 nM). Changes in absorbance were measured at 412 nm. All experiments were conducted independently and in triplicate. To estimate the type of inhibition, reciprocal plots of 1/V versus 1/[S] were created.

[3] = ORAC-FL antioxidant activity assay; details: Trolox equivalents, mean ± SD; compounds 1–13 µM, tacrine 1–10 µM; pH 7.4
in vitro = details: human
AChE = biological target: T4, AChE (Electrophorus electricus, UniProt O42275); experiment: Kinetic characterization of AChE inhibition (Lineweaver-Burk); type: biochemical; details: Lineweaver-Burk plot; inhibitor 0, 200, 400, 800 nM
T4 construct: purchased Sigma Aldrich (Steinheim, Germany)
Method: […]. Lineweaver–Burk plots were prepared to reveal the type of inhibition. The experiments were performed in triplicate.
. The protocol of the kinetic study was similar to the previous inhibition study. A phosphate buffer (pH 8.0) was used as the solvent for all reagents. […]. For the BuChE kinetic analysis, we used four concentrations of the 3b derivative (0, 150, 200, 250 nM). Changes in absorbance were measured at 412 nm. All experiments were conducted independently and in triplicate. […]

[4] = Ellman's method, pH 8.0, 37 °C, mean ± SD of three independent experiments
[5] = Ellman's method, pH 8.0, 37 °C, mean ± SD of three independent experiments, read-out: AChE IC50 ± SD

T2 sequence (O42275 24-633): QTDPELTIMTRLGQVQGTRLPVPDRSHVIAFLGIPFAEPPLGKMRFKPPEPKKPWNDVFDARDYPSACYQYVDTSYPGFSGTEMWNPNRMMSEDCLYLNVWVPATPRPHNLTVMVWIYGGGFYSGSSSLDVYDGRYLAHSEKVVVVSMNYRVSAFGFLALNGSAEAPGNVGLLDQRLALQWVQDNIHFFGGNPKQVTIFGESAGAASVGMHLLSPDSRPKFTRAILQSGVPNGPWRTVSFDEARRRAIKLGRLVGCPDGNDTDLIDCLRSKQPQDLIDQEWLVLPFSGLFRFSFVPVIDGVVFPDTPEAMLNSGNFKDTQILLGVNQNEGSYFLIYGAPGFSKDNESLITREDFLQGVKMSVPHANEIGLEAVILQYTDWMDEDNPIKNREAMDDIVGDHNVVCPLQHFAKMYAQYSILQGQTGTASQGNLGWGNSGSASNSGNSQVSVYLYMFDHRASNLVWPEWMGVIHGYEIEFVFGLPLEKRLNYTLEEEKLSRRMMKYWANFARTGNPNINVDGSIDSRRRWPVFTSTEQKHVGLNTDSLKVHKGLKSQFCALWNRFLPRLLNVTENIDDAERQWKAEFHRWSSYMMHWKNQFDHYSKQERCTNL
T1 sequence (P81908 whole entry): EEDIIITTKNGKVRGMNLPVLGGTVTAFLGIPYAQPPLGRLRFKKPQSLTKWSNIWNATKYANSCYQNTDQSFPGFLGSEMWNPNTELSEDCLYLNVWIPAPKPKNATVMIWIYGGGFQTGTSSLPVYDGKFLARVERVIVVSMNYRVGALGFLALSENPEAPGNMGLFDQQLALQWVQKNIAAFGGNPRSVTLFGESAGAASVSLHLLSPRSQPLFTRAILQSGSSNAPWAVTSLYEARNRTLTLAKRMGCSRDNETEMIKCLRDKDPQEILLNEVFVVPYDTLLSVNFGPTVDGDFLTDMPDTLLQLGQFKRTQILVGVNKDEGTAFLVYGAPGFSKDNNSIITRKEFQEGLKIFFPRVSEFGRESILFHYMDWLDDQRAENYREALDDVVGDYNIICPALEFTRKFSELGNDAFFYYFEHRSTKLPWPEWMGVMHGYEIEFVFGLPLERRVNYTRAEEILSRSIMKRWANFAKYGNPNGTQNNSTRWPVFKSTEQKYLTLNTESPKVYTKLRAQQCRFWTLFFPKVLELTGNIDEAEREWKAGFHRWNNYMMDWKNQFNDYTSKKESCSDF
T4 sequence (O42275 24-633): as the sequence (O42275 24-633) above
T3 sequence (P81908 whole entry): as the sequence (P81908 whole entry) above

| Compound | IC50 [1, 4] | Selectivity for BuChE ([1]; IC50(AChE)/IC50(BuChE)) | IC50 [2, 5] | Selectivity for AChE ([2]; IC50(BuChE)/IC50(AChE)) | ORAC (TE) [3] | other results |
| --- | --- | --- | --- | --- | --- | --- |
| Cl.O=C(NCCCCNc1c2c(nc3ccccc13)CCC2)c1c2ccccc2nc2ccccc12 [Compound 3c, N-[4-({1H,2H,3H-cyclopenta[b]quinolin-9-yl}amino)butyl]acridine-9-carboxamide hydrochloride] | 200 ± 18.1 nM | 1.36 | 273 ± 22.1 nM | 0.73 | – | – |
| Cl.O=C(NCCCCCNc1c2c(nc3ccccc13)CCC2)c1c2ccccc2nc2ccccc12 [Compound 3d, N-[5-({1H,2H,3H-cyclopenta[b]quinolin-9-yl}amino)pentyl]acridine-9-carboxamide hydrochloride] | 173 ± 18.9 nM | 23.39 | – | 0.043 | – | – |
| Cl.O=C(NCCCCCCCCNc1c2c(nc3ccccc13)CCC2)c1c2ccccc2nc2ccccc12 [Compound 3g, N-[8-({1H,2H,3H-cyclopenta[b]quinolin-9-yl}amino)octyl]acridine-9-carboxamide hydrochloride] | 178 ± 17 nM | 3.95 | 701 ± 67.1 nM | 0.25 | – | – |
| Cl.O=C(NCCCNc1c2c(nc3ccccc13)CCC2)c1c2ccccc2nc2ccccc12 [Compound 3b, N-[3-({1H,2H,3H-cyclopenta[b]quinolin-9-yl}amino)propyl]acridine-9-carboxamide hydrochloride] | 104 ± 7.63 nM | – | – | – | 0.4614 ± 0.056 TE | Type of BuChE inhibition (BuChE): mixed type of inhibition; IC50 [2]: 272 ± 35.1 nM; IC50 at 24 h (in vitro): 32000 ± 2050 nM |
| Nc1c2c(nc3ccccc13)CCCC2 [Tacrine, tacrine, reference compound] | – | – | – | – | 0.0132 ± 0.009 TE | – |
| c1ccc2c(NCCCCCCCNc3c4c(nc5ccccc35)CCCC4)c3c(nc2c1)CCCC3 [Bistacrine, bistacrine, reference compound] | – | – | – | – | – | Selectivity for BuChE [1]: 1.79; IC50 ([1]; pH 8, read-out: BuChE IC50 ± SD): 226 ± 30.4 nM; Selectivity for AChE [2]: 0.56; IC50 ([2]; pH 8, read-out: AChE IC50 ± SD): 405 ± 28.6 nM |
| Cl.O=C(NCCCCCCCCCNc1c2c(nc3ccccc13)CCC2)c1c2ccccc2nc2ccccc12 [Compound 3h, N-[9-({1H,2H,3H-cyclopenta[b]quinolin-9-yl}amino)nonyl]acridine-9-carboxamide hydrochloride] | – | 2.95 | 669 ± 83.4 nM | 0.34 | – | – |
| Cl.O=C(NCCCCCCNc1c2c(nc3ccccc13)CCC2)c1c2ccccc2nc2ccccc12 [Compound 3e, N-[6-({1H,2H,3H-cyclopenta[b]quinolin-9-yl}amino)hexyl]acridine-9-carboxamide hydrochloride] | – | 2.02 | 395 ± 36.1 nM | 0.49 | – | – |
| Cl.O=C(NCCNc1c2c(nc3ccccc13)CCC2)c1c2ccccc2nc2ccccc12 [Compound 3a, N-[2-({1H,2H,3H-cyclopenta[b]quinolin-9-yl}amino)ethyl]acridine-9-carboxamide hydrochloride] | 540 ± 66.9 nM | 15.96 | 8620 ± 606 nM | 0.063 | – | – |
| Cl.O=C(NCCCCCCCNc1c2c(nc3ccccc13)CCC2)c1c2ccccc2nc2ccccc12 [Compound 3f, N-[7-({1H,2H,3H-cyclopenta[b]quinolin-9-yl}amino)heptyl]acridine-9-carboxamide hydrochloride] | 204 ± 16 nM | 0.56 | 113 ± 7.14 nM | 1.79 | 0.3254 ± 0.014 TE | Type of AChE inhibition (AChE): mixed type of inhibition; IC50 at 24 h (in vitro; human hepatic stellate cells (HSCs)): 49800 ± 4360 nM |
